Like-named read-outs stand apart in the source and are kept apart here.
Columns and labels:
[1] = tested on: HeLa cervical adenocarcinoma; test: In vitro cell proliferation inhibition, HeLa; type: cell-based; details: Homo sapiens, read-out: HeLa IC50
Excerpt: (§1) The ability of a test compound to inhibit unregulated in vitro cell proliferation may be determined by measuring incorporation of ^14C-labelled thymidine into newly synthesized DNA within cell lines derived from carcinomas originating from several tissues. Accordingly, the effect of a test compound on proliferation of cells with a variety of phenotypes may be determined.
(§2) Carcinoma cell lines used include the HeLa cervical adenocarcinoma from the American Type Culture Collection (ATCC Cat. #CCL2), SK-OV-3 ovarian carcinoma (ATCC Cat. #HTB-77), MCF-7 breast carcinoma (ATCC Cat. #HTB-22), BT474 breast carcinoma (ATCC Cat. #HTB-20), SKBR3 breast carcinoma (ATCC Cat. #HTB-30), A431 epidermoid carcinoma (ATCC Cat. #CRL-1555) and NCI-N87 gastric carcinoma (ATCC Cat. #CRL-5822).
(§3) The carcinoma cells are trypsinized and counted. The cells (3000-8000 count) are added to each well of a 96-well CytoStar tissue culture treated scintillating microplate (Amersham #RPNQ0160) in complete medium (100 μL) and the plate is then incubated in complete medium for 24 hrs at 37° C. in an inert atmosphere containing 5% CO2.
(§4) Test compound (1 μL) in 100% DMSO is added to the plate test-wells with DMSO only added to control-wells. The plate is incubated in complete medium for a second 24 hr period at 37° C. in an atmosphere containing 5% CO2.
(§5) An aliquot of a solution of Methyl ^14C-thymidine (56 mC/mmol) (NEN #NEC568 or Amersham #CFA532) and complete medium (20 μL to provide 0.2 μCi/well) is then added to each well and the plate is incubated for a third 24 hr period at 37° C. in an atmosphere containing 5% CO2.
(§6) The plate contents are then discarded, the plate is washed twice with PBS (200 μL) and then PBS (200 μL) is added to each well. The plate is sealed and the degree of methyl ^14C-thymidine incorporation is quantified on a Packard Top Count.
(§7) Cell proliferation of the Hela cell line was measured using the ATP-Lite method as described in the ATP Lite Kit (Perkin-Elmer Kit Number 6106941) or the C^14 method as described above. Cell proliferation of the other cell lines was measured using the C^14 method.
(§8) The term “NT” means that the compound indicated was not tested in a particular cell line. The lack of such testing is not intended to imply a belief that the compound is not otherwise active in a particular cell line or any other cell line not tested.

[2] = tested on: SK-OV-3 ovarian carcinoma; test: In vitro cell proliferation inhibition, SK-OV-3; type: cell-based; details: Homo sapiens; SK-OV-3 cells, 14C-thymidine incorporation
Excerpt: as §1, §2, §3, §4, §5, §6, §7, §8

MCF-7 breast carcinoma = test: In vitro cell proliferation inhibition, MCF-7; type: cell-based; details: Homo sapiens, MCF7; MCF-7 cells, 14C-thymidine incorporation
Excerpt: as §1, §2, §3, §4, §5, §6, §7, §8

[3] = tested on: NCI-N87 gastric carcinoma; test: In vitro cell proliferation inhibition, NCI-N87; type: cell-based; details: Homo sapiens
Excerpt: as §1, §2, §3, §4, §5, §6, §7, §8

EGFR = biological target: T1, EGFR (Homo sapiens, UniProt P00533); test: EGFR Kinase Assay; type: biochemical;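 also: recombinant GST-tagged EGFR expressed in Sf9 cells, phosphorylating biotinylated polyGluTyr with γ-33P ATP on Streptavidin Flashplates, 1 h at 30 °C, scintillation counting, inhibition relative to plate maximum and minimum signals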
T1 construct: The intracellular portion of EGFR started at nucleotide 2189 (corresponding to amino acid 667) and ended at the termination codon; made in house; host or cells: Sf9 insect cells (baculovirus)

HER-2 = biological target: T2, HER-2 (Homo sapiens, UniProt P04626); test: HER-2 Kinase Assay; type: biochemical; details: read-out: HER2 IC50;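 also: HER2 kinase reaction read by scintillation counting, inhibition scaled between maximum and minimum signals set on each plate, IC50 from inhibition against log concentration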
T2 construct: purchased Proqinase (Freiburg, Germany)

BT474 breast carcinoma = test: In vitro cell proliferation inhibition, BT474; type: cell-based; details: Homo sapiens
Excerpt: as §1, §2, §3, §4, §5, §6, §7, §8

SKBR3 breast carcinoma = test: In vitro cell proliferation inhibition, SKBR3; type: cell-based; details: Homo sapiens
Excerpt: as §1, §2, §3, §4, §5, §6, §7, §8

[4] = tested on: A431 epidermoid carcinoma; test: In vitro cell proliferation inhibition, A431; type: cell-based; details: Homo sapiens
Excerpt: as §1, §2, §3, §4, §5, §6, §7, §8

[5] = HeLa cell line, ATP-Lite method or C14 thymidine method
[6] = NCI-N87, N87 cells, 14C-thymidine incorporation, read-out: IC50 N87
[7] = BT-474, BT474 cells, 14C-thymidine incorporation, read-out: IC50 BT474
[8] = SK-BR-3, SKBR3 cells, 14C-thymidine incorporation, read-out: IC50 SKBR3
[9] = A-431, A431 cells, 14C-thymidine incorporation, read-out: IC50 A431

T1 sequence (P00533 669-1210 limits assumed): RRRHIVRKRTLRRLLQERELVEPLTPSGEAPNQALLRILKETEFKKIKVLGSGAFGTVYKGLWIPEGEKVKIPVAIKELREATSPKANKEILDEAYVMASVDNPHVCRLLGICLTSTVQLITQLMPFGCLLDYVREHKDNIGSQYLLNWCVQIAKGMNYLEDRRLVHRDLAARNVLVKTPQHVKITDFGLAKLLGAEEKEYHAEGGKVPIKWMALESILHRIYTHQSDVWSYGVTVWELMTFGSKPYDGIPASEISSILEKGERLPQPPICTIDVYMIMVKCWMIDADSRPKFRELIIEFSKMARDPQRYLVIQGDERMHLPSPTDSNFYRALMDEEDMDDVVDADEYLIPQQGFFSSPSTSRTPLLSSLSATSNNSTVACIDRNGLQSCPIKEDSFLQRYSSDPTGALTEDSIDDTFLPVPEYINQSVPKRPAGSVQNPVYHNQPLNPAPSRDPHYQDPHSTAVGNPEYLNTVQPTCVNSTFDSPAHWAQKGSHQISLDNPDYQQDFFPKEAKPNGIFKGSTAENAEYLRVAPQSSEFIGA
T2 sequence (P04626 679-1255): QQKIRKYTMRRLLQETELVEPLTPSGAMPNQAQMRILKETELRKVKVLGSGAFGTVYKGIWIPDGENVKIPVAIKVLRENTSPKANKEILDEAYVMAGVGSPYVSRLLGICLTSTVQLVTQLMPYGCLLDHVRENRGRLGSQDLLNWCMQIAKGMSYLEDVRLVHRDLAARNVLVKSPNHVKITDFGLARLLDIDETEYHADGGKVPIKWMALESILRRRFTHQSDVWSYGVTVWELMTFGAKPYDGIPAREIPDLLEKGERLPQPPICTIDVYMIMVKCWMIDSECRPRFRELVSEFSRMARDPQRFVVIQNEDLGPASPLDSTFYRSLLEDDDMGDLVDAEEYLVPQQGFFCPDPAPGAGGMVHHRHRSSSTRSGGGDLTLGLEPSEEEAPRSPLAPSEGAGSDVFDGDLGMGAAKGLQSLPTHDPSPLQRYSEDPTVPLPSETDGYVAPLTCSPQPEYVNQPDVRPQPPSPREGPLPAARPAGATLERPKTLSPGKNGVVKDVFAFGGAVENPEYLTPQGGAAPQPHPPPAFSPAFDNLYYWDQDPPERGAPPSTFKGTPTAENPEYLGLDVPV

Row | Structure (SMILES) | IC50 [1, 5] [nM] | IC50 [2] [nM] | IC50 (MCF-7 breast carcinoma) [nM] | IC50 [3, 6] [nM] | IC50 (EGFR) [nM] | IC50 (HER-2) [nM] | IC50 ([1]; HeLa) [nM] | IC50 (BT474 breast carcinoma; BT-474, read-out: IC50 BT474) [nM] | IC50 (SKBR3 breast carcinoma; SK-BR-3, read-out: IC50 SKBR3) [nM] | IC50 ([4]; A-431, read-out: IC50 A431) [nM] | IC50 ([3]; NCI-N87, read-out: IC50 N87) [nM] | IC50 (BT474 breast carcinoma; [7]) [nM] | IC50 (SKBR3 breast carcinoma; [8]) [nM] | IC50 [4, 9] [nM]
1 | CO/N=C/c1c(N)ncnc1Nc1ccc(OCc2ccccc2)c(Cl)c1 [Cpd 9, (5E)-4-amino-6-(4-benzyloxy-3-chloro-phenylamino)-pyrimidine-5-carbaldehyde O-methyl-oxime] | 35000 | 100000 | 86600 | 700 |  |  |  |  |  |  |  |  |  | 
2 | CO/N=C/c1c(N)ncnc1Nc1ccc2c(ccn2Cc2cccc(F)c2)c1 [Cpd 34, (5E)-4-amino-6-[1-(3-fluoro-benzyl)-1H-indol-5-ylamino]-pyrimidine-5-carbaldehyde O-methyl-oxime] | 3500 | 3200 | 3800 | 200 |  |  |  |  |  |  |  |  |  | 
3 | CO/N=C/c1c(N)ncnc1Nc1ccc2[nH]c(Cc3cccc(F)c3)nc2c1 [Cpd 60, (5E)-4-amino-6-[2-(3-fluoro-benzyl)-1H-benzoimidazol-5-ylamino]-pyrimidine-5-carbaldehyde O-methyl-oxime] | 10000 | 10000 | 10000 | 600 |  |  |  |  |  |  |  |  |  | 
4 | CN(C)CCCO/N=C/c1c(N)ncnc1Nc1ccc2c(cnn2Cc2cccc(F)c2)c1 [Cpd 70, (5E)-4-amino-6-[1-(3-fluoro-benzyl)-1H-indazol-5-ylamino]-pyrimidine-5-carbaldehyde O-(3-dimethylamino-propyl)-oxime] |  |  |  |  | 20 | 20 | 10000 | 100 | 400 | 14200 | 300 |  |  | 
5 | Nc1ncnc(Nc2ccc(OCc3cccc(F)c3)c(Cl)c2)c1/C=N/OCCCO [Cpd 75, (5E)-4-amino-6-[3-chloro-4-(3-fluoro-benzyloxy)-phenylamino]-pyrimidine-5-carbaldehyde O-(3-hydroxy-propyl)-oxime] | 40100 | 10000 | 30700 | 1 | 8 | 9 |  |  |  |  |  |  |  | 
6 | Nc1ncnc(Nc2ccc3c(cnn3Cc3cccc(F)c3)c2)c1/C=N/OCCCN1CCOCC1 [Cpd 87, (5E)-4-amino-6-[1-(3-fluoro-benzyl)-1H-indazol-5-ylamino]-pyrimidine-5-carbaldehyde O-(3-morpholin-4-yl-propyl)-oxime] | 4900 |  |  | 300 | 30 | 70 |  |  |  |  |  | 300 | 500 | 3600
7 | Nc1ncnc(Nc2ccc3c(cnn3Cc3cccc(F)c3)c2)c1/C=N/OCCCN1CCCCC1 [Cpd 92, (5E)-4-amino-6-[1-(3-fluoro-benzyl)-1H-indazol-5-ylamino]-pyrimidine-5-carbaldehyde O-(3-piperidin-1-yl-propyl)-oxime] | 4700 |  |  | 200 | 50 | 30 |  |  |  |  |  | 200 | 400 | 3100
8 | Nc1ncnc(Nc2ccc(OCc3cc(F)cc(F)c3)c(Cl)c2)c1/C=N/OCCN1CCOCC1 [Cpd 99, (5E)-4-amino-6-[3-chloro-4-(3,5-difluoro-benzyloxy)-phenylamino]-pyrimidine-5-carbaldehyde O-(2-morpholin-4-yl-ethyl)-oxime] | 100000 |  |  | 100000 | 70 | 200 |  |  |  |  |  | 10000 | 100000 | 100000
9 | Nc1ncnc(Nc2ccc3c(ccn3Cc3cccc(F)c3)c2)c1/C=N/OCCN1CCCCC1 [Cpd 102, (5E)-4-amino-6-[1-(3-fluoro-benzyl)-1H-indol-5-ylamino]-pyrimidine-5-carbaldehyde O-(2-piperidin-1-yl-ethyl)-oxime] | 1400 |  |  | 200 | 40 | 140 |  |  |  |  |  | 900 | 700 | 1
10 | N#Cc1c(N)ncnc1Nc1ccc(OCc2ccccc2)c(Cl)c1 [Cpd 118, 4-amino-6-(4-benzyloxy-3-chloro-phenylamino)-pyrimidine-5-carbonitrile] | 100000 |  |  | 100000 | 30 | 100 |  |  |  |  |  | 100000 | 100000 | 100000
